Publication PMC12298351, “Novel 3,19-(N-Phenyl-3-(4-fluorophenyl)-pyrazole) Acetal of Andrographolide Promotes Cell Cycle Arrest and Apoptosis in MDA-MB-231 Breast Cancer Cells” (Pharmaceuticals, 2025)

Assays:
[1] = tested on: HL-60(TB)
[2] = tested on: OVCAR-4; type: cell-based; conditions: OVCAR-4, Ovarian
[3] = tested on: BT-549; type: cell-based; conditions: BT-549, Breast
[4] = tested on: T-47D
[5] = tested on: SNB-19; type: cell-based; conditions: SNB-19, CNS
[6] = tested on: HS 578T
[7] = tested on: MALME-3M; conditions: Melanoma
[8] = tested on: LOX IMVI
[9] = tested on: NCI-H23
[10] = tested on: A549/ATCC
[11] = tested on: HT29; conditions: HT29, Colon
[12] = tested on: A498; conditions: A498, Renal
[13] = tested on: CCRF-CEM
[14] = tested on: K-562; conditions: K-562, Leukemia
[15] = tested on: SNB-75; conditions: SNB-75, CNS
[16] = tested on: TK-10; type: cell-based; conditions: TK-10, Renal
[17] = tested on: SN12C
[18] = tested on: HOP-62
[19] = tested on: SW-620; conditions: SW-620, Colon
[20] = tested on: UACC-62; conditions: UACC-62, Melanoma
[21] = tested on: COLO 205; conditions: COLO 205, Colon
[22] = tested on: PC-3; conditions: PC-3, Prostate
[23] = tested on: UACC-257; conditions: UACC-257, Melanoma
[24] = tested on: HOP-92
[25] = tested on: SR
[26] = tested on: SK-MEL-2; conditions: SK-MEL-2, Melanoma
[27] = tested on: NCI/ADR-RES
[28] = tested on: UO-31; conditions: UO-31, Renal
[29] = tested on: OVCAR-8; conditions: OVCAR-8, Ovarian
[30] = tested on: U251; conditions: U251, CNS
[31] = tested on: NCI-H522
[32] = tested on: M14; type: cell-based; conditions: M14, Melanoma
[33] = read-out: 50% lethal concentration (LC50), Leukemia
[34] = read-out: 50% lethal concentration (LC50), Breast
[35] = read-out: 50% lethal concentration (LC50)

C=C1CCC2C3(C)COC(c4cn(-c5ccccc5)nc4-c4ccc(F)cc4)OC3CCC2(C)C1CC=C1C(=O)OCC1O (stereo not shown) [1f, 3,19-(N-Phenyl-3-(4-fluorophenyl)-pyrazole) Acetal of Andrographolide]
GI50 ([1]; Leukemia): 0.64 µM | Total growth inhibition (TGI) ([1]; Leukemia): 7.12 µM | CC50 [1, 33]: > 100 µM | GI50 [2]: 1.75 µM | Total growth inhibition (TGI) [2]: 4.08 µM | GI50 [3]: 1.31 µM | Total growth inhibition (TGI) [3]: 3.18 µM | GI50 ([4]; Breast): 1.19 µM | Total growth inhibition (TGI) ([4]; Breast): 2.97 µM | CC50 [4, 34]: 7.44 µM | GI50 [5]: 1.44 µM | Total growth inhibition (TGI) [5]: 2.91 µM | GI50 ([6]; Breast): 1.51 µM | Total growth inhibition (TGI) ([6]; Breast): 2.94 µM | CC50 [6, 34]: 5.72 µM | GI50 [7]: 1.58 µM | Total growth inhibition (TGI) [7]: 3.02 µM | GI50 ([8]; Melanoma): 1.32 µM | Total growth inhibition (TGI) ([8]; Melanoma): 2.59 µM | CC50 ([8]; read-out: 50% lethal concentration (LC50), Melanoma): 5.09 µM | Total growth inhibition (TGI) ([9]; NCI-H23, Non-Small Cell Lung): 3.32 µM | GI50 ([9]; NCI-H23, Non-Small-Cell Lung): 1.7 µM | CC50 ([9]; read-out: 50% lethal concentration (LC50), NCI-H23, Non-Small Cell Lung): 6.46 µM | Total growth inhibition (TGI) ([10]; Non-Small Cell Lung): 5.92 µM | GI50 ([10]; Non-Small-Cell Lung): 2.14 µM | CC50 ([10]; read-out: 50% lethal concentration (LC50), Non-Small Cell Lung): 51.5 µM | GI50 [11]: 2.38 µM | Total growth inhibition (TGI) [11]: 7.63 µM | CC50 [11, 35]: 93.9 µM | GI50 [12]: 3.31 µM | Total growth inhibition (TGI) [12]: 11.5 µM | CC50 [12, 35]: 38.3 µM | GI50 ([13]; Leukemia): 0.4 µM | CC50 [13, 33]: > 100 µM | GI50 [14]: 2.34 µM | Total growth inhibition (TGI) [14]: > 100 µM | CC50 [14, 35]: > 100 µM | GI50 [15]: 1.66 µM | Total growth inhibition (TGI) [15]: 3.09 µM | CC50 [15, 35]: 5.86 µM | GI50 [16]: 1.27 µM | Total growth inhibition (TGI) [16]: 2.55 µM | GI50 ([17]; Renal): 1.55 µM | Total growth inhibition (TGI) ([17]; Renal): 3.27 µM | CC50 ([17]; read-out: 50% lethal concentration (LC50), Renal): 6.93 µM | Total growth inhibition (TGI) ([18]; HOP-62, Non-Small Cell Lung): 3.36 µM | GI50 ([18]; HOP-62, Non-Small-Cell Lung): 1.62 µM | CC50 ([18]; read-out: 50% lethal concentration (LC50), HOP-62, Non-Small Cell Lung): 6.95 µM | GI50 [19]: 4.49 µM | Total growth inhibition (TGI) [19]: > 100 µM | CC50 [19, 35]: > 100 µM | GI50 [20]: 1.58 µM | Total growth inhibition (TGI) [20]: 3.09 µM | CC50 [20, 35]: 6.05 µM | GI50 [21]: 1.48 µM | Total growth inhibition (TGI) [21]: 3.2 µM | GI50 [22]: 1.55 µM | Total growth inhibition (TGI) [22]: 4.04 µM | CC50 [22, 35]: > 100 µM | GI50 [23]: 1.65 µM | Total growth inhibition (TGI) [23]: 3.18 µM | Total growth inhibition (TGI) ([24]; HOP-92, Non-Small Cell Lung): 2.73 µM | GI50 ([24]; HOP-92, Non-Small-Cell Lung): 1.29 µM | CC50 ([24]; read-out: 50% lethal concentration (LC50), HOP-92, Non-Small Cell Lung): 5.78 µM | GI50 ([25]; Leukemia): 1.7 µM | Total growth inhibition (TGI) ([25]; Leukemia): 7.33 µM | CC50 [25, 33]: > 100 µM | GI50 [26]: 1.69 µM | Total growth inhibition (TGI) [26]: 3.1 µM | GI50 ([27]; Ovarian): 1.54 µM | Total growth inhibition (TGI) ([27]; Ovarian): 3.57 µM | CC50 ([27]; read-out: 50% lethal concentration (LC50), Ovarian): 8.29 µM | GI50 [28]: 1.6 µM | Total growth inhibition (TGI) [28]: 3.34 µM | CC50 [28, 35]: 5.14 µM | GI50 [29]: 1.48 µM | Total growth inhibition (TGI) [29]: 2.95 µM | CC50 [29, 35]: 5.86 µM | GI50 [30]: 2.36 µM | Total growth inhibition (TGI) [30]: 5.63 µM | Total growth inhibition (TGI) ([31]; NCI-H522, Non-Small Cell Lung): 3.82 µM | GI50 ([31]; NCI-H522, Non-Small-Cell Lung): 1.95 µM | CC50 ([31]; read-out: 50% lethal concentration (LC50), NCI-H522, Non-Small Cell Lung): 7.48 µM | GI50 [32]: 1.5 µM | Total growth inhibition (TGI) [32]: 3.23 µM
